Assays:
Assay type in all cases: in vivo
Hafer [1] = assay: Pre-emergence test; settings: 2 kg/ha, rated after three weeks
From the text: (§1) Losungsmittel: 5 Gewichtsteile Aceton Emulgator: 1 Gewichtsteil Alkylarylpolyglykolether
(§2) Zur Herstellung einer zweckmäßigen Wirkstoffzubereitung vermischt man 1 Gewichtsteil Wirkstoff mit der angegebenen Menge Lösungsmittel, gibt die angegebene Menge Emulgator zu und verdünnt das Konzentrat mit Wasser auf die gewünschte Konzentration.
(§3) Samen der Testpflanzen werden in normalen Boden ausgesät und nach 24 Stunden mit der Wirkstoffzubereitung begossen. Dabei hält man die Wassermenge pro Flächeneinheit zweckmäßigerweise konstant. Die Wirkstoffkonzentration in der Zubereitung spielt keine Rolle, entscheidend ist nur die Aufwandmenge des Wirkstoffs pro Flächeneinheit. Nach drei Wochen wird der Schädigungsgrad der Pflanzen bonitiert.

Hirse = assay: Pre-emergence test; settings: 2 kg/ha, rated after three weeks
From the text: as §1, §2, §3

Mais [2] = assay: Pre-emergence test; settings: 2 kg/ha, rated after three weeks
From the text: as §1, §2, §3

Senf [3] = assay: Pre-emergence test; settings: 2 kg/ha, rated after three weeks
From the text: as §1, §2, §3

Weizen [4] = assay: Pre-emergence test; settings: 2 kg/ha, rated after three weeks
From the text: as §1, §2, §3

Rüben [5] = assay: Pre-emergence test; settings: 2 kg/ha, rated after three weeks
From the text: as §1, §2, §3

Hafer [6] = assay: Post-emergence test; settings: 1 kg/ha, rated after three weeks
From the text: as §2, with “Lösungsmittel: 5 Gewichtsteile Aceton Emulgator: 1 Gewichtsteil Alkylarylpolyglykolether Zur” for “Zur”
(§4) Mit der Wirkstoffzubereitung spritzt man Testpflanzen, welche eine Höhe von 5 - 15 cm haben so, daß die jeweils gewünschten Wirkstoffmengen pro Flächeneinheit ausgebracht werden. Die Konzentration der Spritzbrühe wird so gewählt, daß in 2000 1 Wasser/ha die jeweils gewünschten Wirkstoffmengen ausgebracht werden. Nach drei Wochen wird der Schädigungsgrad der Pflanzen bonitiert.

Mais [7] = assay: Post-emergence test; settings: 1 kg/ha, rated after three weeks
From the text: as §2, with “Lösungsmittel: 5 Gewichtsteile Aceton Emulgator: 1 Gewichtsteil Alkylarylpolyglykolether Zur” for “Zur”
as §4

Senf [8] = assay: Post-emergence test; settings: 1 kg/ha, rated after three weeks
From the text: as §2, with “Lösungsmittel: 5 Gewichtsteile Aceton Emulgator: 1 Gewichtsteil Alkylarylpolyglykolether Zur” for “Zur”
as §4

Weizen [9] = assay: Post-emergence test; settings: 1 kg/ha, rated after three weeks
From the text: as §2, with “Lösungsmittel: 5 Gewichtsteile Aceton Emulgator: 1 Gewichtsteil Alkylarylpolyglykolether Zur” for “Zur”
as §4

Baumwolle = assay: Post-emergence test; settings: 1 kg/ha, rated after three weeks
From the text: as §2, with “Lösungsmittel: 5 Gewichtsteile Aceton Emulgator: 1 Gewichtsteil Alkylarylpolyglykolether Zur” for “Zur”
as §4

Bohnen = assay: Post-emergence test; settings: 1 kg/ha, rated after three weeks
From the text: as §2, with “Lösungsmittel: 5 Gewichtsteile Aceton Emulgator: 1 Gewichtsteil Alkylarylpolyglykolether Zur” for “Zur”
as §4

Rüben [10] = assay: Post-emergence test; settings: 1 kg/ha, rated after three weeks
From the text: as §2, with “Lösungsmittel: 5 Gewichtsteile Aceton Emulgator: 1 Gewichtsteil Alkylarylpolyglykolether Zur” for “Zur”
as §4

SMILES | Wirkung (Schädigungsgrad der Pflanzen) (Hafer [1]) | Wirkung (Schädigungsgrad der Pflanzen) (Hirse) | Wirkung (Schädigungsgrad der Pflanzen) (Mais [2]) | Wirkung (Schädigungsgrad der Pflanzen) (Senf [3]) | Wirkung (Schädigungsgrad der Pflanzen) (Weizen [4]) | Wirkung (Schädigungsgrad der Pflanzen) (Rüben [5]) | Wirkung (Schädigungsgrad der Pflanzen) (Hafer [6]) | Wirkung (Schädigungsgrad der Pflanzen) (Mais [7]) | Wirkung (Schädigungsgrad der Pflanzen) (Senf [8]) | Wirkung (Schädigungsgrad der Pflanzen) (Weizen [9]) | Wirkung (Schädigungsgrad der Pflanzen) (Baumwolle) | Wirkung (Schädigungsgrad der Pflanzen) (Bohnen) | Wirkung (Schädigungsgrad der Pflanzen) (Rüben [10])
O=c1[nH]c(C(F)(Cl)Cl)c(Cl)c(=O)[nH]1 [Produkt aus Beispiel 16] | praktisch nicht | praktisch nicht | praktisch nicht | zum größeren Teil vernichtet | praktisch nicht |  |  |  |  |  |  |  | 
O=c1[nH]c(C(F)(F)Cl)c(Cl)c(=O)[nH]1 [Produkt aus Beispiel 15] | praktisch nicht |  | praktisch nicht | nahezu vollständig ver-nichtet | praktisch nicht | nahezu vollständig ver-nichtet | praktisch nicht | praktisch nicht | vollständig vernichtet | praktisch nicht |  |  | 
O=c1[nH]c(C(F)(F)F)c(Cl)c(=O)[nH]1 [Produkt aus Beispiel 13, 5-Chlor-6-trifluor-2,4-(lH,3H)-pyrimidindion] |  |  |  |  |  |  | praktisch nicht | voll-ständig oder nahezu vollständig vernichtet | voll-ständig oder nahezu vollständig vernichtet | praktisch nicht | voll-ständig oder nahezu vollständig vernichtet | voll-ständig oder nahezu vollständig vernichtet | praktisch nicht
O=c1[nH]c(C(F)(F)F)c(F)c(=O)[nH]1 [Produkt aus Beispiel 5 und 14, 5-Fluor-6-trifluormethyl-2,4-(lH,3H)-pyrimidindion] | zum größeren Teil ver-nichtet |  | fast nicht | zum größeren Teil ver-nichtet | fast nicht |  |  |  | vollständig oder nahezu vollständig vernichtet | praktisch nicht |  |  | vollständig oder nahezu vollständig vernichtet

Source: patent EP0151939A2, “Pyrimidinediones and dihydroxypyrimidines, and process for the preparation of pyrimidinedones and dihydroxypyrimidines” (BAYER AG, priority 1984, dated 1985)
